Target: Glutathione-disulfide reductase (Escherichia coli O157:H7, UniProt A0A0H3JIZ9)
Assay: Enzyme Assay
Experimental: The enzyme activities in the absence of drugs or chemicals were taken as 100%. For each drug or chemical, an activity%-(drug) graph was drawn and drug concentrations producing 50% inhibition were calculated for the inhibitors.

Glutathione-disulfide reductase, sequence (A0A0H3JIZ9 whole entry): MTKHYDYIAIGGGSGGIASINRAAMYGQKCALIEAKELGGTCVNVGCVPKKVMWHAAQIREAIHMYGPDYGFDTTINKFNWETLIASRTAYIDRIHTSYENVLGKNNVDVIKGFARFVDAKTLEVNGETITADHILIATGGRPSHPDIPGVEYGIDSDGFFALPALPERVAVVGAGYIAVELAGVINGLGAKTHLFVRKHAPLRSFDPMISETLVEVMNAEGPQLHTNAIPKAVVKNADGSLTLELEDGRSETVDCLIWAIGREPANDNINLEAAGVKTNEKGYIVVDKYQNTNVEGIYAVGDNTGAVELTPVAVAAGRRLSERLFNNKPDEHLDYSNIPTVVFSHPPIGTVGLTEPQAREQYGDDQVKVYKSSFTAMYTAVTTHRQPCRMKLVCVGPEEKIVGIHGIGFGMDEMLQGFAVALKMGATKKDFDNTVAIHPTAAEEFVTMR

Row | SMILES | IC50 [µM] | Ki [µM]
1 | CC(CCC(=O)Nc1nnc(S(N)(=O)=O)s1)C1CCC2C3C(O)CC4CC(O)CCC4(C)C3CCC12C (centres undefined) [Sulfonamide derivative, 2] | 4.5 | 6.1
2 | CC(CCC(=O)Nc1nnc(S(N)(=O)=O)s1)C1CCC2C3CCC4CC(O)CCC4(C)C3CCC12C (centres undefined) [Sulfonamide derivative, 1] | 47.1 | 72.3
